Literature values in patent US20080318335A1, “Transgenic Plant for Detecting Environmental Chemicals” (priority 2005, published 2008).

Test system: GUS gene
Conditions: tobacco including AhR vector; 5 nM 20-methylcholanthrene

Q: With 20-methylcholanthrene as the substance, how does the GUS gene expression read?
A: expressed
